# Values quoted from earlier work as cited in patent publication US20060034895A1, “Supplement food for low blood glucose recovery” (priority 2003, published 2006).
smiles,measurement,setting,value
O=C[C@H](O)[C@@H](O)[C@H](O)[C@H](O)CO [D-glucose],solubility in alcohol,alcohol,cannot melt into an alcohol easily
same,solubility in ether,ether,insoluble to ether
same,solubility in water,water,easy to melt into water
